Molecular target: T1, BRAF (V600E) (Homo sapiens, UniProt P15056, V600E)
T1 construct: area encoding the BRAF kinase domain region, so that the protein contains an N-terminal Flag; made in house; host or cells: SF-21 insect cells infected with recombinant baculovirus BAC-V600E
Assay: Determination of BRAF (V600E) kinase inhibitory activity
Assay type: biochemical
Details: test compound 1.0 μM; substrate GST-MEK1 (K96R); [γ-32P]ATP; read-out: Inhibitory rate (%) at 1.0 μM
Description: Determination of BRAF (V600E) Kinase Inhibitory Activity
A test compound (2.5 μL) dissolved in dimethyl sulfoxide (DMSO) was added to 37.5 μL of a reaction solution (25 mM HEPES (pH 7.5), 10 mM magnesium acetate, 1 mM dithiothreitol) containing BRAF (V600E) enzyme (30 ng) and recombinant type protein GST-MEK1 (K96R) 250 ng, and the mixture was incubated at room temperature for 10 min. ATP solution (10 μL, 2.5 μM ATP, 0.1 μCi [γ-^32P]ATP) was added to the obtained mixture, and the mixture was reacted at room temperature for 20 min. The reaction was quenched by adding 50 μL of ice-cooled 20% trichloroacetic acid (Wako Pure Chemical Industries, Ltd.). The reaction solution was allowed to stand at 4° C. for 30 min, and the acid-precipitable fraction was transferred to GF/C filter plate (Millipore Corporation) using cell harvester (PerkinElmer). The plate was dried at 45° C. for 60 min, and 40 μL of MicroScinti 0 (PerkinElmer) was added thereto. The radioactivity was measured using TopCount (PerkinElmer). The kinase inhibitory rate (%) of the test compound was calculated by the following formula: Inhibitory rate (%)=(1−(count of test compound−blank)÷(control−blank))×100
The count of the solution reacted without addition of the compound was used as a “control”, and the count of the solution without the compound and enzyme was used as a “blank”.

T1 sequence (P15056 457-717 V600E limits assumed): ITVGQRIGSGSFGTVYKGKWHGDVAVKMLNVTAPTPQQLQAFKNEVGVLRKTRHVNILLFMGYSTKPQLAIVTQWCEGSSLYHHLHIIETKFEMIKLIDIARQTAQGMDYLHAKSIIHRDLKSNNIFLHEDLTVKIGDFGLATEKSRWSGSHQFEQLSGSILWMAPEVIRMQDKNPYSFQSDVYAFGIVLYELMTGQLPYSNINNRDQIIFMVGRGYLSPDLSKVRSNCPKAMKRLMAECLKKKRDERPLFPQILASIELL

Row | Structure (SMILES) | inhibition at 1 µM [%]
1 | COc1ccc(NC(=O)c2cccc(C3(C#N)CC3)c2)cc1Oc1ccc2nc(NC(=O)C3CC3)sc2n1 [Example C1, 3-(1-cyanocyclopropyl)-N-[3-({2-[(cyclopropylcarbonyl)amino][1,3]thiazolo[5,4-b]pyridin-5-yl}oxy)-4-methoxyphenyl]benzamide] | 100
2 | Cc1ccc(NC(=O)c2cccc(C(F)(F)F)c2)cc1Oc1ccc2nc(NC(=O)C3CC3)sc2n1 [Example C8, N-[3-({2-[(cyclopropylcarbonyl)amino][1,3]thiazolo[5,4-b]pyridin-5-yl}oxy)-4-methylphenyl]-3-(trifluoromethyl)benzamide] | 99
3 | Cc1ccc(NC(=O)c2cccc(C3(C#N)CC3)c2)cc1Oc1ccc2nc(NC(=O)CO)sc2n1 [Example C17, 3-(1-cyanocyclopropyl)-N-(3-{[2-(glycoloylamino)[1,3]thiazolo[5,4-b]pyridin-5-yl]oxy}-4-methylphenyl)benzamide] | 99
4 | O=C(Nc1cccc(Oc2ccc3nc(NC(=O)C4CC4)sc3n2)c1)c1cccc(C(F)(F)F)c1 [Example C20, N-[3-({2-[(cyclopropylcarbonyl)amino][1,3]thiazolo[5,4-b]pyridin-5-yl}oxy)phenyl]-3-(trifluoromethyl)benzamide] | 100
5 | CN1CCN(CC(=O)Nc2nc3ccc(Oc4cccc(NC(=O)c5cccc(C(F)(F)F)c5)c4)nc3s2)CC1 [Example C22, N-{3-[(2-{[(4-methylpiperazin-1-yl)acetyl]amino}[1,3]thiazolo[5,4-b]pyridin-5-yl)oxy]phenyl}-3-(trifluoromethyl)benzamide] | 100
6 | CN1CCN(CC(=O)Nc2nc3ccc(Oc4cccc(NC(=O)c5cccc(C(C)(C)C#N)c5)c4)nc3s2)CC1 [Example C25, 3-(1-cyano-1-methylethyl)-N-{3-[(2-{[(4-methylpiperazin-1-yl)acetyl]amino}[1,3]thiazolo[5,4-b]pyridin-5-yl)oxy]phenyl}benzamide] | 100
7 | Cc1ccc(Oc2ccc3nc(NC(=O)c4cocn4)sc3n2)cc1NC(=O)c1cccc(C2(C#N)CC2)c1 [Example C30, N-[5-(3-{[3-(1-cyanocyclopropyl)benzoyl]amino}-4-methylphenoxy)[1,3]thiazolo[5,4-b]pyridin-2-yl]-1,3-oxazole-4-carboxamide] | 100
8 | Cc1ccc(Oc2ccc3nc(NC(=O)CO)sc3n2)cc1NC(=O)c1cccc(C(C)(C)C#N)c1 [Example C36, 3-(1-cyano-1-methylethyl)-N-(5-{[2-(glycoloylamino)[1,3]thiazolo[5,4-b]pyridin-5-yl]oxy}-2-methylphenyl)benzamide] | 100
9 | O=C(Nc1cccc(Nc2ccc3nc(NC(=O)C4CC4)sc3n2)c1)c1cccc(C(F)(F)F)c1 [Example C41, N-[3-({2-[(cyclopropylcarbonyl)amino][1,3]thiazolo[5,4-b]pyridin-5-yl}amino)phenyl]-3-(trifluoromethyl)benzamide] | 100

Tested on: human colon cancer cell HT-29
Assay: Colon cancer cell HT-29 growth suppressive action in vitro
Assay type: cell-based
Details: 72 h, HT-29 cells, 3 days culture, SRB staining, read-out: IC50 (nM), cell growth suppression
Description: Colon Cancer Cell HT-29 Growth Suppressive Action in vitro
A cell suspension (100 μL, 3,000 cells/well) of human colon cancer cell HT-29 (purchased from ATCC) was plated in a 96-well plate, and the cells were cultured at 37° C. in a 5% carbon dioxide gas incubator. The next day, 2-fold serial dilution of each test compound solution (diluted from maximum concentration 20 μM) (100 μL) was added, and the cells were cultured for 3 days. The culture medium containing the test compound was removed, and the cells were washed with phosphate buffer (PBS). A 50% trichloroacetic acid solution was added to the final concentration of 10% (v/v), and the mixture was stood overnight at 4° C., whereby the cells were fixed to the plate. Then, a dye SRB 0.4% (w/v) solution (dissolved in 1% acetic acid) was added at 50 μl/well, whereby the cell protein was fixed and stained (Skehan et al., Journal Of National Cancer Institute, vol. 82, pp. 1107-1112, 1990). The cells were washed 3 times with 1% acetic acid solution (200 μL/well), and 100 μL of an extract (10 mM Tris buffer) was added to extract the dye. The absorbance at an absorption wavelength […] was measured, and cell amount was measured as a protein amount.

Row | Structure (SMILES) | IC50 [nM]
10 | COc1ccc(NC(=O)c2cccc(C(C)(C)C#N)c2)cc1Oc1ccc2nc(NC(=O)C3CC3)sc2n1 [Example C6, 3-(1-cyano-1-methylethyl)-N-[3-({2-[(cyclopropylcarbonyl)amino][1,3]thiazolo[5,4-b]pyridin-5-yl}oxy)-4-methoxyphenyl]benzamide] | < 500
11 | Cc1ccc(NC(=O)c2cccc(C(C)(C)C#N)c2)cc1Oc1ccc2nc(NC(=O)C3CC3)sc2n1 [Example C12, 3-(1-cyano-1-methylethyl)-N-[3-({2-[(cyclopropylcarbonyl)amino][1,3]thiazolo[5,4-b]pyridin-5-yl}oxy)-4-methylphenyl]benzamide] | < 500
12 | Cc1ccc(NC(=O)c2cccc(C(C)(C)C#N)c2)cc1Oc1ccc2nc(NC(=O)CN3CCN(C)CC3)sc2n1 [Example C15, 3-(1-cyano-1-methylethyl)-N-{4-methyl-3-[(2-{[(4-methylpiperazin-1-yl)acetyl]amino}[1,3]thiazolo[5,4-b]pyridin-5-yl)oxy]phenyl}benzamide] | < 500
13 | Cc1ccc(NC(=O)c2cccc(C3(C#N)CC3)c2)cc1Oc1ccc2nc(NC(=O)CN3CCN(C)CC3)sc2n1 [Example C19, 3-(1-cyanocyclopropyl)-N-{4-methyl-3-[(2-{[(4-methylpiperazin-1-yl)acetyl]amino}[1,3]thiazolo[5,4-b]pyridin-5-yl)oxy]phenyl}benzamide] | < 500
14 | CC(C)(C#N)c1cccc(C(=O)Nc2cccc(Oc3ccc4nc(NC(=O)C5CC5)sc4n3)c2)c1 [Example C23, 3-(1-cyano-1-methylethyl)-N-[3-({2-[(cyclopropylcarbonyl)amino][1,3]thiazolo[5,4-b]pyridin-5-yl}oxy)phenyl]benzamide] | < 500
15 | CC(C)(C#N)c1cccc(C(=O)Nc2cccc(Oc3ccc4nc(NC(=O)CO)sc4n3)c2)c1 [Example C24, 3-(1-cyano-1-methylethyl)-N-(3-{[2-(glycoloylamino)[1,3]thiazolo[5,4-b]pyridin-5-yl]oxy}phenyl)benzamide] | < 500
16 | CN1CCN(CC(=O)Nc2nc3ccc(Oc4cccc(NC(=O)c5cccc(C6(C#N)CC6)c5)c4)nc3s2)CC1 [Example C28, 3-(1-cyanocyclopropyl)-N-{3-[(2-{[(4-methylpiperazin-1-yl)acetyl]amino}[1,3]thiazolo[5,4-b]pyridin-5-yl)oxy]phenyl}benzamide] | < 500
17 | N#CC1(c2cccc(C(=O)Nc3cc(Oc4ccc5nc(NC(=O)C6CC6)sc5n4)ccc3F)c2Cl)CC1 [Example C66, 2-chloro-3-(1-cyanocyclopropyl)-N-[5-({2-[(cyclopropylcarbonyl)amino][1,3]thiazolo[5,4-b]pyridin-5-yl}oxy)-2-fluorophenyl]benzamide] | < 500
18 | CCN1CCN(CC(=O)Nc2nc3ccc(Oc4cc(NC(=O)c5cccc(C(C)(C)C#N)c5)ccc4C)nc3s2)CC1 [Example C88, 3-(1-cyano-1-methylethyl)-N-{3-[(2-{[(4-ethylpiperazin-1-yl)acetyl]amino}[1,3]thiazolo[5,4-b]pyridin-5-yl)oxy]-4-methylphenyl}benzamide] | < 500
19 | CN(c1ccc(F)c(NC(=O)c2cccc(OC(C)(C)C#N)c2Cl)c1)c1ccc2nc(NC(=O)C3CC3)sc2n1 [Example C122, 2-chloro-3-(1-cyano-1-methylethoxy)-N-{5-[{2-[(cyclopropylcarbonyl)amino][1,3]thiazolo[5,4-b]pyridin-5-yl}(methyl)amino]-2-fluorophenyl}benzamide] | < 500
20 | CC(C)(C#N)Oc1cccc(C(=O)Nc2cc(Nc3ccc4nc(NC(=O)C5CC5)sc4n3)ccc2F)c1Cl [Example C126, 2-chloro-3-(1-cyano-1-methylethoxy)-N-[5-({2-[(cyclopropylcarbonyl)amino][1,3]thiazolo[5,4-b]pyridin-5-yl}amino)-2-fluorophenyl]benzamide] | < 500
21 | CN1CCN(CC(=O)Nc2nc3cnc(N(C)c4cccc(NC(=O)c5cccc(C(C)(C)C#N)c5)c4)nc3s2)CC1 [Example D11, 3-(1-cyano-1-methylethyl)-N-{3-[methyl(2-{[(4-methylpiperazin-1-yl)acetyl]amino}[1,3]thiazolo[5,4-d]pyrimidin-5-yl)amino]phenyl}benzamide] | < 500
22 | Cc1ccc(NC(=O)c2cccc(C(C)(C)C#N)c2)cc1Nc1ncc2nc(NC(=O)C3CC3)sc2n1 [Example D25, 3-(1-cyano-1-methylethyl)-N-[3-({2-[(cyclopropylcarbonyl)amino][1,3]thiazolo[5,4-d]pyrimidin-5-yl}amino)-4-methylphenyl]benzamide] | < 500
23 | Cc1ccc(NC(=O)c2cccc(C(C)(C)C#N)c2)cc1Nc1ncc2nc(NC(=O)CN3CCN(C)CC3)sc2n1 [Example D33, 3-(1-cyano-1-methylethyl)-N-{4-methyl-3-[(2-{[(4-methylpiperazin-1-yl)acetyl]amino}[1,3]thiazolo[5,4-d]pyrimidin-5-yl)amino]phenyl}benzamide] | < 500
24 | CC(=O)Nc1nc2cnc(Nc3cc(NC(=O)c4cccc(C(C)(C)C#N)c4Cl)ccc3C)nc2s1 [Example D35, N-(3-{[2-(acetylamino)[1,3]thiazolo[5,4-d]pyrimidin-5-yl]amino}-4-methylphenyl)-2-chloro-3-(1-cyano-1-methylethyl)benzamide] | < 500
